According to patent US9474734B2, “Compounds for treating inflammation and pain” (Olatec Industries LLC, priority 2012, dated 2016):

Tested on: arachidonic acid-induced ear swelling
Test: topical arachidonic acid-induced ear swelling model in mice
Format: in vivo
Settings: male ICR mice; topical application 30 min before and 15 min after arachidonic acid; measured at 90 minutes; indomethacin 14 mM (0.1 mg/20 μL), 3-(methylthio)propionitrile 375 mM (1.0 mg/20 μL)
Protocol: The test compounds, indomethacin (positive control), and vehicle were evaluated for anti-inflammatory activity in a topical arachidonic acid-induced ear swelling model in mice. Male ICR mice weighing 22±2 g were used and randomly divided; each group had 10 mice. Arachidonic Acid (0.5 mg in 20 μl of acetone:ethanol/1:1) was applied topically to the anterior and posterior surfaces of the right ear of each mice. Test substances and vehicle, as listed in Table 1 were similarly applied 30 min before and 15 min after arachidonic acid application. The thickness of the right ear and the left ear was measured and the difference calculated as an indication of the inflammation in the right ear. Ear swelling was measured by a Dyer model micrometer gauge at 60 and 90 minutes after arachidonic acid application as an index of inflammation. Percent inhibition was calculated according to the formula: Ic−It/Ic×100, where Ic and It refers to increase of ear thickness (mm) in control and treated mice, respectively. ANOVA and Dunnett's test were employed to ascertain significant difference between vehicle control and treated groups. Significance is set at P<0.05 level.

In the case of COc1ccc2c(c1)c(CC(=O)O)c(C)n2C(=O)c1ccc(Cl)cc1 [Indomethacin], the “% Inhibition of ear swelling” value is reported as 53%.
In the case of CSCCC#N [3-(methylthio)propionitrile], the “% Inhibition of ear swelling” value is reported as 43%.
